Measured values reported in patent US9051311B2, “Sulfamide sodium channel inhibitors” (AMGEN INC., priority 2012, dated 2015).
Counter-ions that a name gives are not always drawn.

Columns and labels:
Nav 1.7 [1] = target: T1, Nav 1.7 (Homo sapiens (Human), UniProt Q15858); test: Nav 1.7 in vitro PatchExpress (PX) assay, whole cell voltage clamp; assay type: cell-based; settings: 293 cells stably transfected with human Nav1.7; partially inactivated state (20 to 50% inactivation)
Description: Nav 1.7 In Vitro PatchExpress (PX) Assay
293 cells stably transfected with human Nav1.7 were recorded in whole cell voltage clamp mode with the PatchXpress automated electrophysiology system (Molecular Devices, LLC, Sunnyvale, Calif.). Compound effects were measured on a partially inactivated state of the sodium channel. Cells were clamped to a holding potential yielding 20 to 50% inactivation. To elicit sodium current, channels were activated by pulsing to −10 mV for 20 msec. This voltage protocol was repeated at a rate of 0.1 Hz throughout the experiment. A single concentration of test compound was applied to cells for a duration of 3 minutes. Peak sodium current was measured at the end of the compound addition period to determine percent inhibition.

Nav 1.7 [2] = target: T1, Nav 1.7; test: Nav 1.7 IonWorks Quattro (IWQ) in vitro assay, population patch-clamp; assay type: cell-based; settings: 293 cells stably transfected with Nav 1.7; block at 26th pulse to −20 mV;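 also: cells held at −110 mV for 3 s, then 26 pulses of 150 ms at 5 Hz, leak-corrected peak current, percent block measured before and after compound, 3–8 min exposure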
Description: (§1) Nav 1.7 and Nav 1.5 Ion Works Quattro (IWQ) In Vitro Assays
(§2) 293 cells stably transfected with either Nav 1.7 or with Nav 1.5 were recorded in population patch-clamp mode with the IonWorks® Quattro automated electrophysiology system in accordance with the manufacturer's specifications (Molecular Devices, LLC, Sunnyvale, Calif.). Sodium channel currents were measured in response to a train of depolarizations that induced successively greater inactivation.
(§3) Cells were held at −110 mV for three seconds (Nav 1.7) or half a second (Nav 1.5) from a holding voltage of −15 mV, then put through a series of 26 pulses of 150 msec duration to −20 mV at a frequency of 5 Hz. Cells were then left unclamped for a period of 3 to 8 minutes while a single concentration of test compound was added. Cells were then reclamped and put through the same voltage protocol. Current at the end of the 26th pulse to −20 mV was subtracted from the peak current evoked by the 26th pulse to −20 mV to correct for leak current. Percent block was calculated for each concentration in duplicate, and IC50 curves were fitted to percent block as a function of concentration.

Nav 1.5 = Nav 1.5 (Homo sapiens (Human), UniProt Q14524); test: cell-based;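 also: HEK293 cells stably expressing Nav1.5, sodium current at the 26th of 26 pulses to −20 mV (150 ms, 5 Hz) after compound versus before, leak-corrected, 3–8 min exposure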
Chain of Nav 1.5 (Q14524 whole entry): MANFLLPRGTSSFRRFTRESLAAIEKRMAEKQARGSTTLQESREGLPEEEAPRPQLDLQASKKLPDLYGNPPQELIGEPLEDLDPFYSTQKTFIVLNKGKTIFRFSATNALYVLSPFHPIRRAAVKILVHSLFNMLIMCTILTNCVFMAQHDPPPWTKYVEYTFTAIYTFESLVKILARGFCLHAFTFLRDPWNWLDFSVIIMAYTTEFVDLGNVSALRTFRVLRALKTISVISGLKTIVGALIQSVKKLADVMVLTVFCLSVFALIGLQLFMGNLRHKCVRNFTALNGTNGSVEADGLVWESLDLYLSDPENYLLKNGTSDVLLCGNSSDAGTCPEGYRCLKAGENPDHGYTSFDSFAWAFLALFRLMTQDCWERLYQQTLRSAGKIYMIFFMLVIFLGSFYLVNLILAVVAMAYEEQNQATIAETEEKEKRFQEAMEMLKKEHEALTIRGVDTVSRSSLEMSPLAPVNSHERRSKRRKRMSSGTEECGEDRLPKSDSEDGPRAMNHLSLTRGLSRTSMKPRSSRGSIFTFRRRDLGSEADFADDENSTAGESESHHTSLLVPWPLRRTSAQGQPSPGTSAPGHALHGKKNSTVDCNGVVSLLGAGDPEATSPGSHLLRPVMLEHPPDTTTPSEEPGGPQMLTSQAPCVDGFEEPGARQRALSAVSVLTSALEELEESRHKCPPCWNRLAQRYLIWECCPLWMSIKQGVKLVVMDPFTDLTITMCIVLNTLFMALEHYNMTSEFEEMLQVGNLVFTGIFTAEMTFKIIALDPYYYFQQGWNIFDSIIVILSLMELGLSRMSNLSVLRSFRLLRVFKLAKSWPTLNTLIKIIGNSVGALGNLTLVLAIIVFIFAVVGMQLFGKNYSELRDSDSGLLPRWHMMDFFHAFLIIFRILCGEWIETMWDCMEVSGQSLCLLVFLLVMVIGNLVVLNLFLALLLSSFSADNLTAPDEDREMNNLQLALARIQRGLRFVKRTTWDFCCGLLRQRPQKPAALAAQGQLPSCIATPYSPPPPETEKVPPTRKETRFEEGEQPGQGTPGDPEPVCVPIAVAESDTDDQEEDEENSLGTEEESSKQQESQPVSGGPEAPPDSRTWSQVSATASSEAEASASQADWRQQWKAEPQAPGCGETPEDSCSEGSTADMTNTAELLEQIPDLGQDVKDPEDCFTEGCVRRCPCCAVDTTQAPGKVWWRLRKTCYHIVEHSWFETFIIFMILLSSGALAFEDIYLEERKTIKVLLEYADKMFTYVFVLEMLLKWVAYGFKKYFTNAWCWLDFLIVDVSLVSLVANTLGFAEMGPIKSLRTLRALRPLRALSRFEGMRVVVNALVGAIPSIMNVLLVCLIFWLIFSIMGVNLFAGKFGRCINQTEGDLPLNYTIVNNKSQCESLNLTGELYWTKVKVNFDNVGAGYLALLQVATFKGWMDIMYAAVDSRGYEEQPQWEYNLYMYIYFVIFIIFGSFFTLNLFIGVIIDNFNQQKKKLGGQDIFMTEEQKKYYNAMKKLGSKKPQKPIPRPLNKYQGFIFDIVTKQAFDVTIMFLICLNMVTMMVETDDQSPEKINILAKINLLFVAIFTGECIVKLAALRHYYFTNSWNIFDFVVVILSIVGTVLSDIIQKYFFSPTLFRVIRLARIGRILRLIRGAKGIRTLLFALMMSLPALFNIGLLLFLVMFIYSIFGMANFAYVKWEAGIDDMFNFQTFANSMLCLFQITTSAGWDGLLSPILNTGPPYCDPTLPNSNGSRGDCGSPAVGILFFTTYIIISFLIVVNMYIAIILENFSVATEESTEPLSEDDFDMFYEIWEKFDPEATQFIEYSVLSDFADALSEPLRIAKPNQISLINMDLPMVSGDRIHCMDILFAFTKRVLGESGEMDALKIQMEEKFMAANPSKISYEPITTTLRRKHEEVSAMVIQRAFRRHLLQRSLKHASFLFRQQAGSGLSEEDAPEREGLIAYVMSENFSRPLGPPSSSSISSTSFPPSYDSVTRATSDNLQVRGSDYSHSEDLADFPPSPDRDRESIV
Description: as §1, §2, §3

T1 sequence (Q15858 whole entry): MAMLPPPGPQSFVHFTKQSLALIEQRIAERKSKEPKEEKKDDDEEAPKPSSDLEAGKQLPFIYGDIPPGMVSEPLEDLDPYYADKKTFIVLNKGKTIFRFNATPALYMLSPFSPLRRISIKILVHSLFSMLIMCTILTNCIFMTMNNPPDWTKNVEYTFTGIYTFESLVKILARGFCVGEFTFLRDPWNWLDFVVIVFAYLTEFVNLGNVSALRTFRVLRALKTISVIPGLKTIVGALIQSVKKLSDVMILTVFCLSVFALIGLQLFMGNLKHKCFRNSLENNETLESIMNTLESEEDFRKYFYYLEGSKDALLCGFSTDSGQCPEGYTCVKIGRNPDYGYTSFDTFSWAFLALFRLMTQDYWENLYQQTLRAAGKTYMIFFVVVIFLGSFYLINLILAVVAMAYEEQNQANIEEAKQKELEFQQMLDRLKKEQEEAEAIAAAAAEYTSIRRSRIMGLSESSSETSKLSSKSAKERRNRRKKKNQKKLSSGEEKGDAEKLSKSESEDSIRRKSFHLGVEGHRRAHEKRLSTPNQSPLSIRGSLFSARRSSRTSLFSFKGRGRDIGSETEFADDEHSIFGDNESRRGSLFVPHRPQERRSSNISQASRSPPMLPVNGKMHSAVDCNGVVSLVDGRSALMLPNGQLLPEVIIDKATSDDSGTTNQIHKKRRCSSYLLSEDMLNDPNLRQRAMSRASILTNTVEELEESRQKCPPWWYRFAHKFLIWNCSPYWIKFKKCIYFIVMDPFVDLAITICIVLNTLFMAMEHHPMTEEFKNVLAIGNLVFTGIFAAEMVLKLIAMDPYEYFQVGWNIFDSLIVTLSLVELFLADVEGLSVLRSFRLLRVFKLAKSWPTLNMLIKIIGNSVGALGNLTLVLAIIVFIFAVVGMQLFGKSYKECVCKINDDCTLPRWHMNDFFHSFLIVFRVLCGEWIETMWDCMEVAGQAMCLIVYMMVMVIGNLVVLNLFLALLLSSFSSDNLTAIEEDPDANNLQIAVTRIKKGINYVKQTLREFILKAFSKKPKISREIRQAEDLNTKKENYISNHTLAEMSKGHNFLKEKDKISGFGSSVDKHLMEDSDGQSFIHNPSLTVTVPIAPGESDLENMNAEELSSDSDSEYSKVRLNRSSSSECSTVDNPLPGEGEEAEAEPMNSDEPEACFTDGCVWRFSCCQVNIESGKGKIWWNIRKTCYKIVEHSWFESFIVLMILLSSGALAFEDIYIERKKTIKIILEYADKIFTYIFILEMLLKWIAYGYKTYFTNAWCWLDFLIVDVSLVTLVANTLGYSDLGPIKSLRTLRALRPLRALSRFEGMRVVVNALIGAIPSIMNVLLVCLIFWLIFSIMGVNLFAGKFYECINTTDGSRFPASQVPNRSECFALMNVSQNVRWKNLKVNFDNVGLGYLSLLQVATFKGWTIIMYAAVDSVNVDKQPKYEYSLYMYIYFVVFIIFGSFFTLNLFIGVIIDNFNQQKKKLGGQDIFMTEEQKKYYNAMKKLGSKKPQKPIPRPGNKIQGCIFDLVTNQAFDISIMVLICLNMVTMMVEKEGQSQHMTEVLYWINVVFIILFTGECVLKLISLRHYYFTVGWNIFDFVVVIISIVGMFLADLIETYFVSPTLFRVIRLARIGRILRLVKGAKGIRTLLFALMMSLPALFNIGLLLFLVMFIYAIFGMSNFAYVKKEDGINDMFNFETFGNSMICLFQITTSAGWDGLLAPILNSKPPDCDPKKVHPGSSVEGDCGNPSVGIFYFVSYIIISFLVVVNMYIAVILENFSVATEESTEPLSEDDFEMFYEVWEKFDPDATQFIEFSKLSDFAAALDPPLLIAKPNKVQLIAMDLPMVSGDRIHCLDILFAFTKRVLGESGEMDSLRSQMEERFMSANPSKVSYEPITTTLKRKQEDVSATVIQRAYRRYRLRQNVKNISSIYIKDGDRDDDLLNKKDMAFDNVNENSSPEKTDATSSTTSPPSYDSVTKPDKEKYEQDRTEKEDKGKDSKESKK

C[N+]1(C)CC=C(c2cc(C(F)(F)F)ccc2-c2cccc3c2CCN(S(=O)(=O)Nc2ncns2)C3)CC1 [Example 14, 4-(2-(2-(N-(1,2,4-Thiadiazol-5-yl)sulfamoyl)-1,2,3,4-tetrahydroisoquinolin-5-yl)-5-(trifluoromethyl)phenyl)-1,1-dimethyl-1,2,3,6-tetrahydropyridin-1-ium hydroxide]
IC50 (Nav 1.7 [1]): 3530 nM | IC50 (Nav 1.7 [2]): 684 nM | IC50 (Nav 1.5): > 10000 nM

CN1CC=C(c2cc(C(F)(F)F)ccc2-c2cccc3c2CCN(S(=O)(=O)Nc2ncns2)C3)CC1 [Example 15, 5-(2-(1-Methyl-1,2,3,6-tetrahydropyridin-4-yl)-4-(trifluoromethyl)phenyl)-N-(1,2,4-thiadiazol-5-yl)-3,4-dihydroisoquinoline-2(1H)-sulfonamide]
IC50 (Nav 1.7 [1]): 90 nM | IC50 (Nav 1.7 [2]): 78.3 nM | IC50 (Nav 1.5): > 10000 nM

Cn1cc(-c2cc(C(F)(F)F)ccc2-c2cccc3c2CCN(S(=O)(=O)Nc2ncns2)C3)cn1 [Example 16, 5-(2-(1-Methyl-1H-pyrazol-4-yl)-4-(trifluoromethyl)phenyl)-N-(1,2,4-thiadiazol-5-yl)-3,4-dihydroisoquinoline-2(1H)-sulfonamide]
IC50 (Nav 1.7 [1]): 5420 nM | IC50 (Nav 1.7 [2]): 2660 nM | IC50 (Nav 1.5): > 10000 nM

O=S(=O)(Nc1ncns1)N1CCc2c(cccc2-c2ccc(C(F)(F)F)cc2-c2cn[nH]c2)C1 [Example 17, 5-(2-(1H-Pyrazol-4-yl)-4-(trifluoromethyl)phenyl)-N-(1,2,4-thiadiazol-5-yl)-3,4-dihydroisoquinoline-2(1H)-sulfonamide]
IC50 (Nav 1.7 [1]): 350 nM | IC50 (Nav 1.7 [2]): 157 nM | IC50 (Nav 1.5): > 10000 nM

Nc1cc(-c2cc(C(F)(F)F)ccc2-c2cccc3c2CCN(S(=O)(=O)Nc2ncns2)C3)ccn1 [Example 18, 5-(2-(2-Aminopyridin-4-yl)-4-(trifluoromethyl)phenyl)-N-(1,2,4-thiadiazol-5-yl)-3,4-dihydroisoquinoline-2(1H)-sulfonamide]
IC50 (Nav 1.7 [1]): 70 nM | IC50 (Nav 1.7 [2]): 45.3 nM | IC50 (Nav 1.5): > 10000 nM

O=S(=O)(Nc1ncns1)N1CCc2c(cccc2-c2ccc(C(F)(F)F)cc2C2=CCOCC2)C1 [Example 19, 5-(2-(3,6-Dihydro-2H-pyran-4-yl)-4-(trifluoromethyl)phenyl)-N-(1,2,4-thiadiazol-5-yl)-3,4-dihydroisoquinoline-2(1H)-sulfonamide]
IC50 (Nav 1.7 [1]): 1710 nM | IC50 (Nav 1.7 [2]): 378 nM | IC50 (Nav 1.5): > 10000 nM

O=S(=O)(Nc1ncns1)N1CCc2c(cccc2-c2ccc(C(F)(F)F)cc2-c2cccnc2)C1 [Example 22, 5-(2-(Pyridin-3-yl)-4-(trifluoromethyl)phenyl)-N-(1,2,4-thiadiazol-5-yl)-3,4-dihydroisoquinoline-2(1H)-sulfonamide]
IC50 (Nav 1.7 [1]): 470 nM | IC50 (Nav 1.7 [2]): 80.5 nM | IC50 (Nav 1.5): > 10000 nM

O=S(=O)(Nc1ncns1)N1CCc2c(cccc2-c2ccc(C(F)(F)F)cc2-c2cncnc2)C1 [Example 23, 5-(2-(Pyrimidin-5-yl)-4-(trifluoromethyl)phenyl)-N-(1,2,4-thiadiazol-5-yl)-3,4-dihydroisoquinoline-2(1H)-sulfonamide]
IC50 (Nav 1.7 [1]): 800 nM | IC50 (Nav 1.7 [2]): 186 nM | IC50 (Nav 1.5): > 10000 nM

O=S(=O)(Nc1ncns1)N1CCc2c(cccc2-c2cccc3ccccc23)C1 [Example 24, 5-(Naphthalen-1-yl)-N-(1,2,4-thiadiazol-5-yl)-3,4-dihydroisoquinoline-2(1H)-sulfonamide]
IC50 (Nav 1.7 [1]): 4910 nM | IC50 (Nav 1.7 [2]): 2680 nM | IC50 (Nav 1.5): > 10000 nM

COc1ccc(-c2cccc3c2CCN(S(=O)(=O)Nc2ncns2)C3)c(OC)c1 [Example 26, 5-(2,4-Dimethoxyphenyl)-N-(1,2,4-thiadiazol-5-yl)-3,4-dihydroisoquinoline-2(1H)-sulfonamide]
IC50 (Nav 1.7 [1]): 2200 nM | IC50 (Nav 1.7 [2]): 1510 nM | IC50 (Nav 1.5): > 10000 nM

COc1ccc(OC)c(-c2cccc3c2CCN(S(=O)(=O)Nc2ncns2)C3)c1 [Example 27, 5-(2,5-Dimethoxyphenyl)-N-(1,2,4-thiadiazol-5-yl)-3,4-dihydroisoquinoline-2(1H)-sulfonamide]
IC50 (Nav 1.7 [1]): 670 nM | IC50 (Nav 1.7 [2]): 125 nM | IC50 (Nav 1.5): > 10000 nM

COc1cccc(OC)c1-c1cccc2c1CCN(S(=O)(=O)Nc1ncns1)C2 [Example 28, 5-(2,6-Dimethoxyphenyl)-N-(1,2,4-thiadiazol-5-yl)-3,4-dihydroisoquinoline-2(1H)-sulfonamide]
IC50 (Nav 1.7 [1]): > 30000 nM | IC50 (Nav 1.7 [2]): 4670 nM | IC50 (Nav 1.5): > 10000 nM

COc1ccc(F)cc1-c1cccc2c1CCN(S(=O)(=O)Nc1ncns1)C2 [Example 29, 5-(5-Fluoro-2-methoxyphenyl)-N-(1,2,4-thiadiazol-5-yl)-3,4-dihydroisoquinoline-2(1H)-sulfonamide]
IC50 (Nav 1.7 [1]): 370 nM | IC50 (Nav 1.7 [2]): 62.8 nM | IC50 (Nav 1.5): > 10000 nM

COc1cc(F)ccc1-c1cccc2c1CCN(S(=O)(=O)Nc1ncns1)C2 [Example 30, 5-(4-Fluoro-2-methoxyphenyl)-N-(1,2,4-thiadiazol-5-yl)-3,4-dihydroisoquinoline-2(1H)-sulfonamide]
IC50 (Nav 1.7 [1]): 560 nM | IC50 (Nav 1.7 [2]): 137 nM | IC50 (Nav 1.5): > 10000 nM

O=S(=O)(Nc1ncns1)N1CCc2c(cccc2-c2ccc(C(F)(F)F)cc2N2CCOCC2)C1 [Example 31, 5-(2-Morpholino-4-(trifluoromethyl)phenyl)-N-(1,2,4-thiadiazol-5-yl)-3,4-dihydroisoquinoline-2(1H)-sulfonamide]
IC50 (Nav 1.7 [1]): 1740 nM | IC50 (Nav 1.7 [2]): 758 nM | IC50 (Nav 1.5): > 10000 nM

O=S(=O)(Nc1ncns1)N1CCc2c(cccc2-c2ccc(C(F)(F)F)cc2-n2ccnc2)C1 [Example 32, 5-(2-(1H-Imidazol-1-yl)-4-(trifluoromethyl)phenyl)-N-(1,2,4-thiadiazol-5-yl)-3,4-dihydroisoquinoline-2(1H)-sulfonamide]
IC50 (Nav 1.7 [1]): 220 nM | IC50 (Nav 1.7 [2]): 25.8 nM | IC50 (Nav 1.5): 6680 nM

O=S(=O)(Nc1ncc(F)s1)N1CCc2c(cccc2-c2ccc(C(F)(F)F)cc2C2=CCNCC2)C1 [Example 33, N-(5-Fluorothiazol-2-yl)-5-(2-(1,2,3,6-tetrahydropyridin-4-yl)-4-(trifluoromethyl)phenyl)-3,4-dihydroisoquinoline-2(1H)-sulfonamide hydrochloride]
IC50 (Nav 1.7 [1]): 190 nM | IC50 (Nav 1.7 [2]): 351 nM | IC50 (Nav 1.5): > 10000 nM

O=S(=O)(Nc1ncns1)N1CCc2c(cccc2-c2ccc(C(F)(F)F)cc2C2=CCNC2)C1 [Example 34, 5-(2-(2,5-Dihydro-1H-pyrrol-3-yl)-4-(trifluoromethyl)phenyl)-N-(1,2,4-thiadiazol-5-yl)-3,4-dihydroisoquinoline-2(1H)-sulfonamide hydrochloride]
IC50 (Nav 1.7 [1]): 50 nM | IC50 (Nav 1.7 [2]): 64.5 nM | IC50 (Nav 1.5): > 10000 nM

O=S(=O)(Nc1ncc(F)s1)N1CCc2c(cccc2-c2ccc(C(F)(F)F)cc2C2CCNCC2)C1 [Example 35, N-(5-Fluorothiazol-2-yl)-5-(2-(piperidin-4-yl)-4-(trifluoromethyl)phenyl)-3,4-dihydroisoquinoline-2(1H)-sulfonamide hydrochloride]
IC50 (Nav 1.7 [1]): 170 nM | IC50 (Nav 1.7 [2]): 315 nM | IC50 (Nav 1.5): > 10000 nM

O=S(=O)(Nc1nccs1)N1CCc2c(cccc2-c2ccc(C(F)(F)F)cc2C2=CCNCC2)C1 [Example 36, 5-(2-(1,2,3,6-Tetrahydropyridin-4-yl)-4-(trifluoromethyl)phenyl)-N-(thiazol-2-yl)-3,4-dihydroisoquinoline-2(1H)-sulfonamide hydrochloride]
IC50 (Nav 1.7 [1]): 4680 nM | IC50 (Nav 1.7 [2]): 1890 nM | IC50 (Nav 1.5): > 10000 nM

O=S(=O)(Nc1ccncn1)N1CCc2c(cccc2-c2ccc(C(F)(F)F)cc2C2=CCNCC2)C1 [Example 37, N-(Pyrimidin-4-yl)-5-(2-(1,2,3,6-tetrahydropyridin-4-yl)-4-(trifluoromethyl)phenyl)-3,4-dihydroisoquino line-2(1H)-sulfonamide]
IC50 (Nav 1.7 [1]): 19000 nM | IC50 (Nav 1.7 [2]): 3940 nM | IC50 (Nav 1.5): > 10000 nM

O=S(=O)(Nc1ncc(F)s1)N1CCc2c(cccc2-c2ccc(C(F)(F)F)cc2-n2ccnc2)C1 [Example 38, 5-(2-(1H-Imidazol-1-yl)-4-(trifluoromethyl)phenyl)-N-(5-fluorothiazol-2-yl)-3,4-dihydroisoquinoline-2(1H)-sulfonamide]
IC50 (Nav 1.7 [1]): 690 nM | IC50 (Nav 1.7 [2]): 91.7 nM | IC50 (Nav 1.5): > 10000 nM

CN1CC=C(c2cc(C(F)(F)F)ccc2-c2cccc3c2CCN(S(=O)(=O)Nc2ncc(F)s2)C3)CC1 [Example 39, N-(5-Fluorothiazol-2-yl)-5-(2-(1-methyl-1,2,3,6-tetrahydropyridin-4-yl)-4-(trifluoromethyl)phenyl)-3,4-dihydroisoquinoline-2(1H)-sulfonamide]
IC50 (Nav 1.7 [1]): 1170 nM | IC50 (Nav 1.7 [2]): 240 nM | IC50 (Nav 1.5): > 10000 nM

CN1CC=C(c2ccc(C(F)(F)F)cc2-c2cccc3c2CCN(S(=O)(=O)Nc2ncc(F)s2)C3)CC1 [Example 40, N-(5-Fluorothiazol-2-yl)-5-(2-(1-methyl-1,2,3,6-tetrahydropyridin-4-yl)-5-(trifluoromethyl)phenyl)-3,4-dihydroisoquinoline-2(1H)-sulfonamide]
IC50 (Nav 1.7 [1]): 12100 nM | IC50 (Nav 1.7 [2]): 2810 nM | IC50 (Nav 1.5): > 10000 nM

CN1CCN(c2cc(C(F)(F)F)ccc2-c2cccc3c2CCN(S(=O)(=O)Nc2ncc(F)s2)C3)CC1 [Example 41, N-(5-Fluorothiazol-2-yl)-5-(2-(4-methylpiperazin-1-yl)-4-(trifluoromethyl)phenyl)-3,4-dihydroisoquinoline-2(1H)-sulfonamide]
IC50 (Nav 1.7 [1]): 7340 nM | IC50 (Nav 1.7 [2]): 395 nM | IC50 (Nav 1.5): > 10000 nM
